Experimental data from BigSolDB 2.1.

CCCN(CCC)S(=O)(=O)c1ccc(C(=O)O)cc1
solubility (mole fraction)
Conditions | 283.15 K | 288.15 K | 293.15 K | 298.15 K | 303.15 K | 308.15 K | 313.15 K | 318.15 K | 323.15 K
in MTBE | 0.00461 | 0.00531 | 0.00665 | 0.00801 | 0.00953 | 0.0111 | 0.0129 | 0.0156 | 0.0185
in acetone | 0.013 | 0.0148 | 0.0176 | 0.0201 | 0.0234 | 0.0268 | 0.0312 | 0.035 | 0.0409
in ethanol | 0.00506 | 0.00615 | 0.00797 | 0.00961 | 0.0117 | 0.015 | 0.0191 | 0.023 | 0.0279
in ethyl acetate | 0.00382 | 0.00459 | 0.00548 | 0.00659 | 0.00821 | 0.00992 | 0.0118 | 0.0138 | 0.0164
in isobutanol | 0.00363 | 0.00453 | 0.00573 | 0.00716 | 0.00904 | 0.0108 | 0.013 | 0.0158 | 0.0199
in isopropanol | 0.00627 | 0.00759 | 0.0089 | 0.0106 | 0.0122 | 0.015 | 0.018 | 0.021 | 0.0258
in methanol | 0.00365 | 0.00485 | 0.00609 | 0.00804 | 0.0105 | 0.0132 | 0.0166 | 0.0202 | 0.0248
in methyl acetate | 0.00449 | 0.00544 | 0.00656 | 0.00794 | 0.00945 | 0.0112 | 0.0129 | 0.0152 | 0.0179
in n-butanol | 0.00744 | 0.0089 | 0.0109 | 0.0131 | 0.0158 | 0.0186 | 0.022 | 0.026 | 0.0303
in n-butyl acetate | 0.00308 | 0.0038 | 0.00474 | 0.00562 | 0.00653 | 0.00773 | 0.00972 | 0.0118 | 0.014
in n-pentanol | 0.00879 | 0.0103 | 0.0123 | 0.0146 | 0.0171 | 0.0194 | 0.0228 | 0.0264 | 0.031
in n-propanol | 0.00544 | 0.00656 | 0.00841 | 0.0108 | 0.0135 | 0.0163 | 0.0207 | 0.0246 | 0.0289
